Experimental data published in US20230099089A1, “ANTIVIRAL SUBSTANCES WITH A WIDE SPECTRUM OF ACTIVITY” (Universitaet zu Luebeck Koerperschaft des Oeffentlichen …, priority 2020, published 2023).
Read-outs that look alike come from different tables or passages of the source.

Key:
MERS-CoV = experiment: microbe, parasite or virus in culture; format: cell-based, MERS coronavirus; conditions: Middle East respiratory syndrome-related coronavirus
plasma protein binding = format: in vitro ADME
CVB3 = experiment: microbe, parasite or virus in culture; format: cell-based, coxsackievirus B3; conditions: Enterovirus B, CVB3, read-out: EC50 CVB3
SARS-CoV = experiment: microbe, parasite or virus in culture; format: cell-based; conditions: Severe acute respiratory syndrome coronavirus, Vero C1008, read-out: EC50 SARS-CoV
[1] = pharmacokinetic study 2 mg/kg i.v.; format: in vivo; conditions: for CO / MRI / V / AUC(0-t) / clearance / half-life: 2 mg/kg i.v.; for AUC(0-t) / clearance / half-life: in vivo, iv
Description: The bioavailability of the lead compound DZLO8 was also characterized in detail in an external CRO- study and the results verified.

EV-A71 = experiment: microbe, parasite or virus in culture; format: cell-based; conditions: Enterovirus A, EVA71, read-out: EC50 EV-A71
HCoV-229E = experiment: microbe, parasite or virus in culture; format: cell-based; conditions: Human coronavirus 229E, Huh-7, read-out: EC50 HCoV-229E
MERS-CoV Mpro = MERS-CoV Mpro (Middle East respiratory syndrome-related coronavirus, UniProt K9N7C7); format: biochemical
[2] = metabolic stability in mouse microsomes; conditions: after 30 minutes
[3] = pharmacokinetic study after subcutaneous injection in CD-1 mice
[4] = metabolic stability in human microsomes; conditions: after 30 minutes
[5] = CD-1 mice, 20 mg/kg subcutaneous
[6] = CD-1 mice, 20 mg/kg subcutaneous, after 24 hours

Sequence of MERS-CoV Mpro (K9N7C7 3248-3553 limits assumed): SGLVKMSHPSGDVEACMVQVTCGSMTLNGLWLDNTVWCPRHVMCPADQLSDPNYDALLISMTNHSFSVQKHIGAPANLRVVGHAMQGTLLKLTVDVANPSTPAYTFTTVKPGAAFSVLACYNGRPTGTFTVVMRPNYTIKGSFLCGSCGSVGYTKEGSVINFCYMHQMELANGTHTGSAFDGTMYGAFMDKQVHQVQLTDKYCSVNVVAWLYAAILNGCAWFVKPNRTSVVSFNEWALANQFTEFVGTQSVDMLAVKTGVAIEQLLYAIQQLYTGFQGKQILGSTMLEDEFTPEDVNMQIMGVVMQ

Compound: O=C(/C=C/c1ccccc1)N[C@@H](CC1CCCCC1)C(=O)N[C@@H](C[C@@H]1CCNC1=O)C(=O)C(=O)NCc1ccccc1 [DZL08, reference compound]
- EC50 (MERS-CoV; Huh-7, read-out: EC50 MERS-CoV): 0.4 nM
- EC50 (MERS-CoV; Vero, read-out: EC50 MERS-CoV): 5000 nM
- fraction unbound (plasma protein binding; read-out: plasma protein binding): 0.01
- EC50 (CVB3): 2800 nM
- EC50 (SARS-CoV): 2100 nM
- CO [1]: 278.34 ± 138.5 ng/mL
- MRI [1]: 0.48 ± 0.0 h
- V [1]: 8.20 ± 4.1 L/kg
- AUC(0-t) [1]: 135 ± 74.6 ng·h/mL
- clearance [1]: 292 ± 162 mL/min/kg
- half-life [1]: 19.8 min
- EC50 (EV-A71): 3.7 µM
- EC50 (HCoV-229E): 1800 nM

Compound: CC(C)(C)OC(=O)Nc1cccn([C@@H](CC2CC2)C(=O)N[C@@H](C[C@@H]2CCNC2=O)C(=O)C(=O)NCc2ccccc2)c1=O [RHCDS1c]
- IC50 (MERS-CoV Mpro): 580 nM

Compound: CC(C)(C)OC(=O)Nc1cccn([C@@H](CC2CCCCC2)C(=O)N[C@@H](C[C@@H]2CCNC2=O)C(=O)C(=O)NC2CC2)c1=O [RHCDS1e]
- compound remained metabolically stable [2]: 80%
- fraction unbound (plasma protein binding): 0.06
- CO [1]: 461.44 ± 345.0 ng/mL
- MRI [1]: 0.47 ± 0.1 h
- V [1]: 6.73 ± 0.4 L/kg
- AUC(0-t) [1]: 193 ± 59 ng·h/mL
- clearance [1]: 178 ± 51.2 mL/min/kg
- half-life [1]: 27 ± 6 min
- improved half-life compared to the lead compound ([1]; versus DZL08): 50%
- MRT ([3]; CD-1, mouse, in vivo, sc, 20 mg/kg): ~1.59 h
- Cmax [3, 5]: 334.50 ng/mL
- time excreted in urine [3, 5]: up to 24 hours
- time the compound remained in plasma [3, 5]: about 4 hours
- concentration in broncheoalveolar washing fluid (BALF) [3, 6]: 52.7 ng/mL
- concentration in the lung [3, 6]: 135 ng per g tissue
- toxicity in mice (toxicity in mice): No evidence of toxicity
- compound remained metabolically stable [4]: 60%
